In BigSolDB 2.1:

CC(=O)Nc1ccc(O)cc1
in 1,4-dioxane
Settings	solubility (mole fraction)
334.55 K	0.037
335.35 K	0.039
336.65 K	0.042
336.95 K	0.042
337.25 K	0.043
337.85 K	0.045

c1ccc2nc3ccccc3nc2c1
Settings	solubility (mole fraction)
in 1,4-dioxane, 302.55 K	0.031
in 1,4-dioxane, 305.55 K	0.033
in 1,4-dioxane, 306.05 K	0.034
in 1,4-dioxane, 308.85 K	0.038
in 1,4-dioxane, 312.45 K	0.04
in 1,4-dioxane, 313.55 K	0.043
in 1,4-dioxane, 318.75 K	0.049
in cyclopentyl methyl ether, 301.15 K	0.022
in cyclopentyl methyl ether, 305.75 K	0.026
in cyclopentyl methyl ether, 310.05 K	0.029
in cyclopentyl methyl ether, 314.05 K	0.033
in cyclopentyl methyl ether, 318.25 K	0.039
in cyclopentyl methyl ether, 326.85 K	0.047
in toluene, 282.95 K	0.015
in toluene, 289.85 K	0.02
in toluene, 294.25 K	0.022
in toluene, 297.95 K	0.025
in toluene, 301.35 K	0.027
in toluene, 312.55 K	0.039
in toluene, 318.25 K	0.046
in toluene, 322.35 K	0.053
in toluene, 328.75 K	0.062

O=C(Oc1ccccc1C(=O)O)c1ccccc1O
Settings	solubility (mole fraction)
in 1,4-dioxane, 324.45 K	0.263
in 1,4-dioxane, 326.55 K	0.268
in 1,4-dioxane, 330.35 K	0.278
in 1,4-dioxane, 332.55 K	0.284
in 1,4-dioxane, 334.95 K	0.291
in 1,4-dioxane, 337.35 K	0.298
in cyclopentyl methyl ether, 319.75 K	0.148
in cyclopentyl methyl ether, 323.25 K	0.156
in cyclopentyl methyl ether, 323.95 K	0.158
in cyclopentyl methyl ether, 325.65 K	0.16
in cyclopentyl methyl ether, 327.75 K	0.166
in cyclopentyl methyl ether, 329.95 K	0.17
in cyclopentyl methyl ether, 333.95 K	0.176
in toluene, 327.75 K	0.016
in toluene, 329.25 K	0.017
in toluene, 333.45 K	0.019
in toluene, 335.25 K	0.021
in toluene, 335.95 K	0.022

O=C(O)c1ccc([N+](=O)[O-])cc1
in 1,4-dioxane
Settings	solubility (mole fraction)
296.95 K	0.036
303.25 K	0.048
306.25 K	0.053
310.85 K	0.062
314.65 K	0.07
319.35 K	0.08

O=C(O)c1ccccc1O
Settings	solubility (mole fraction)
in 1,4-dioxane, 316.85 K	0.323
in 1,4-dioxane, 321.55 K	0.337
in 1,4-dioxane, 325.55 K	0.35
in 1,4-dioxane, 330.85 K	0.365
in cyclopentyl methyl ether, 316.75 K	0.252
in cyclopentyl methyl ether, 322.85 K	0.264
in cyclopentyl methyl ether, 330.55 K	0.28
in cyclopentyl methyl ether, 333.05 K	0.289
in cyclopentyl methyl ether, 337.25 K	0.299
in toluene, 305.65 K	0.007
in toluene, 314.15 K	0.011
in toluene, 323.45 K	0.017
in toluene, 326.85 K	0.019
in toluene, 329.05 K	0.021
in toluene, 332.25 K	0.025
in toluene, 333.35 K	0.027

O=C(O)c1cccc(O)c1
in 1,4-dioxane
Settings	solubility (mole fraction)
305.35 K	0.188
308.85 K	0.194
310.85 K	0.197
312.95 K	0.204
313.05 K	0.203
316.75 K	0.211
318.75 K	0.214
321.45 K	0.219
325.35 K	0.227

NC(=O)c1ccncc1
in 1,4-dioxane
Settings	solubility (mole fraction)
298.55 K	0.014
301.45 K	0.015
303.15 K	0.016
305.05 K	0.017
306.45 K	0.018
308.25 K	0.019
309.15 K	0.02
309.35 K	0.02
312.15 K	0.023
314.05 K	0.024
315.35 K	0.026
319.45 K	0.028
325.55 K	0.036

O=C(O)c1ccc(O)cc1
in 1,4-dioxane
Settings	solubility (mole fraction)
299.65 K	0.08
304.15 K	0.088
311.15 K	0.102
315.75 K	0.111
319.95 K	0.119
324.55 K	0.131

CC(=O)Oc1ccccc1C(=O)O
Settings	solubility (mole fraction)
in 1,4-dioxane, 309.35 K	0.164
in 1,4-dioxane, 312.05 K	0.171
in 1,4-dioxane, 315.55 K	0.183
in 1,4-dioxane, 317.65 K	0.191
in 1,4-dioxane, 325.75 K	0.218
in 1,4-dioxane, 330.05 K	0.236
in 1,4-dioxane, 331.45 K	0.246
in 1,4-dioxane, 332.55 K	0.258
in cyclopentyl methyl ether, 313.05 K	0.055
in cyclopentyl methyl ether, 314.25 K	0.057
in cyclopentyl methyl ether, 316.35 K	0.059
in cyclopentyl methyl ether, 319.05 K	0.064
in cyclopentyl methyl ether, 320.55 K	0.068
in cyclopentyl methyl ether, 322.85 K	0.074
in cyclopentyl methyl ether, 325.75 K	0.079
in toluene, 321.25 K	0.008
in toluene, 326.65 K	0.01
in toluene, 327.15 K	0.011
in toluene, 327.85 K	0.011
in toluene, 330.15 K	0.014

Nc1ccccc1C(=O)O
Settings	solubility (mole fraction)
in 1,4-dioxane, 295.65 K	0.251
in 1,4-dioxane, 304.55 K	0.275
in 1,4-dioxane, 308.35 K	0.287
in 1,4-dioxane, 320.85 K	0.334
in 1,4-dioxane, 324.85 K	0.338
in cyclopentyl methyl ether, 297.85 K	0.137
in cyclopentyl methyl ether, 308.45 K	0.155
in cyclopentyl methyl ether, 315.55 K	0.171
in cyclopentyl methyl ether, 325.25 K	0.194
in cyclopentyl methyl ether, 334.25 K	0.223
in toluene, 295.55 K	0.007
in toluene, 306.95 K	0.012
in toluene, 308.85 K	0.013
in toluene, 312.65 K	0.015
in toluene, 316.75 K	0.018
in toluene, 322.25 K	0.024
in toluene, 325.95 K	0.026
in toluene, 326.05 K	0.026

Nc1ccc(C(=O)O)cc1
in 1,4-dioxane
Settings	solubility (mole fraction)
298.25 K	0.068
301.25 K	0.073
304.65 K	0.08
311.55 K	0.094
317.75 K	0.108
320.65 K	0.116
324.85 K	0.127
326.35 K	0.131

NC(=O)N1c2ccccc2C=Cc2ccccc21
Settings	solubility (mole fraction)
in 1,4-dioxane, 310.35 K	0.022
in 1,4-dioxane, 319.95 K	0.032
in 1,4-dioxane, 323.55 K	0.036
in 1,4-dioxane, 327.95 K	0.043
in 1,4-dioxane, 329.75 K	0.047
in 1,4-dioxane, 332.45 K	0.052
in 1,4-dioxane, 332.95 K	0.054
in cyclopentyl methyl ether, 308.15 K	0.002
in cyclopentyl methyl ether, 315.15 K	0.002
in cyclopentyl methyl ether, 323.75 K	0.003
in cyclopentyl methyl ether, 331.45 K	0.004
in cyclopentyl methyl ether, 332.45 K	0.004
in toluene, 301.85 K	0.001
in toluene, 313.95 K	0.002
in toluene, 319.65 K	0.003
in toluene, 325.35 K	0.004
in toluene, 328.55 K	0.004
in toluene, 332.15 K	0.005
in toluene, 335.35 K	0.006

NC(=O)c1cccnc1
in 1,4-dioxane
Settings	solubility (mole fraction)
307.25 K	0.025
309.95 K	0.027
311.55 K	0.029
313.35 K	0.031
315.45 K	0.033
